Where “and” joins values, the source holds several entries; their conditions need not be identical. Equal values may be shown once. Read-outs that look alike come from different tables or passages of the source.
Legend:
[1] = test system: AsPC-1 (pancreatic cancer cell line); assay: Cell viability analysis (WST-1), pancreatic cancer cell line AsPC-1; format: cell-based; conditions: Homo sapiens
Procedure: (§1) The cell numbers were counted and reseed as 2×10^6 in cell culture plate/flask. Then, the culture medium was added to a volume of 10 ml, and the cells were cultured for 2-3 days. Then, the cells were suspended for loading into 96-well plates. The cell number was 3000/well and the volume of the culture medium was 100 μl each well.
(§2) Removing the original culture medium from 96-well plate. Then add 100 μl of commercially drug at a concentration of 10 μM per well. After 72 hours, add the diluted WST-1 reagent to the well with 100 μl/well, and the diluted WST-1 reagent was acquired from the dilution of 9:1 medium and WST-1 stock reagent. Finally, the total volume of each well was 200 μl/well. Culture the 96-well plate at 37° C. for 30 to 90 minutes. Detecting and calculate the survival rate of each cancer cells with an ELISA reader at OD450 nm.

[2] = test system: gastric cancer cells (AGS) subcutaneous tumor; assay: Animal model test of gastric cancer: tumor size; format: in vivo, mice (BALB/cAnN.Cg-Foxn1nu/CrlNarl); conditions: for Tumor volume growth, average / tumor volume, average: group average; for Tumor volume growth / tumor longest length / tumor volume / tumor width: individual mice A, B, C
Procedure: In this invention, the female mice were (BALB/cAnN.Cg-Foxn1^nu/CrlNarl) purchased from National Laboratory Animal Center (Taiwan)). The weight of the mice were 21±1 g. These mice were subcutaneously injected with gastric cancer cells (AGS) and then put these mice into different cages at random. The drug test experiment was divided into three groups, include “control group”, “low dose group (100 mg/kg/day)”, and “high dose group (200 mg/kg/day)”. These mice were then injected test drug intraperitoneally once daily […]. The tumor sizes and body weight were measured twice a week. The tumor sizes were measured and calculated by formula: (L×W^2)/2. L represents the tumor longest length. W represents the tumor shortest diameter.

[3] = test system: NIH-OVCAR-3 (ovarian cancer cell line); assay: Cell viability analysis (WST-1), ovarian cancer cell line NIH-OVCAR-3; format: cell-based; conditions: Homo sapiens
Procedure: as §1, §2

[4] = test system: MCF7 (Mammary Gland, Adenocarcinoma); assay: Cell viability analysis (WST-1), breast cancer cell line MCF7; format: cell-based; conditions: Homo sapiens
Procedure: as §1, §2

[5] = test system: MDA-MB-231 (Mammary Gland, Adenocarcinoma); assay: Cell viability analysis (WST-1), breast cancer cell line MDA-MB-231; format: cell-based; conditions: Homo sapiens
Procedure: as §1, §2

pancreatic cancer cell = assay: Summary of the effect on pancreatic cancer cell (AsPC-1, BxPC-3); format: cell-based; conditions: pancreatic cancer cell (mean of AsPC-1 and BxPC-3 averages), 72 hours, read-out: Inhibitory effect
Procedure: as §2

normal cells = assay: Toxicity to normal cells (overall statement); format: cell-based
[6] = test system: HeLa (Cervix Adenocarcinoma); assay: Cell viability analysis (WST-1), cervical cancer cell line HeLa; format: cell-based; conditions: Homo sapiens
Procedure: as §1, §2

[7] = test system: T24 (bladder cancer cell line); assay: Cell viability analysis (WST-1), bladder cancer cell line T24; format: cell-based; conditions: T24, 10 μM
Procedure: as §1, §2

colorectal cancer cell = assay: Summary of the effect on colorectal cancer cell (HCT116-wt, LoVo); format: cell-based; conditions: Homo sapiens, colorectal cancer cell (mean of HCT116-wt and LoVo averages), 72 hours, read-out: Inhibitory effect
Procedure: as §2

[8] = high dose (200 mg/kg/day) i.p. once daily, Fifth measurement
[9] = high dose (200 mg/kg/day) i.p. once daily, First measurement
[10] = high dose (200 mg/kg/day) i.p. once daily, First measurement, 200 mg/kg/day
[11] = high dose (200 mg/kg/day) i.p. once daily, Fourth measurement
[12] = high dose (200 mg/kg/day) i.p. once daily, Second measurement
[13] = high dose (200 mg/kg/day) i.p. once daily, Second measurement, 200 mg/kg/day
[14] = high dose (200 mg/kg/day) i.p. once daily, Third measurement
[15] = high dose (200 mg/kg/day) i.p. once daily, Third measurement, 200 mg/kg/day
[16] = low dose (100 mg/kg/day) i.p. once daily, Fifth measurement
[17] = low dose (100 mg/kg/day) i.p. once daily, Fifth measurement, 100 mg/kg/day
[18] = low dose (100 mg/kg/day) i.p. once daily, First measurement
[19] = low dose (100 mg/kg/day) i.p. once daily, First measurement, 100 mg/kg/day
[20] = low dose (100 mg/kg/day) i.p. once daily, Fourth measurement
[21] = low dose (100 mg/kg/day) i.p. once daily, Fourth measurement, 100 mg/kg/day
[22] = low dose (100 mg/kg/day) i.p. once daily, Second measurement
[23] = low dose (100 mg/kg/day) i.p. once daily, Second measurement, 100 mg/kg/day
[24] = low dose (100 mg/kg/day) i.p. once daily, Third measurement
[25] = low dose (100 mg/kg/day) i.p. once daily, Third measurement, 100 mg/kg/day
[26] = 72 h, average of 4 tests, read-out: inhibition effect (survival rate of cells), average

## Oc1ccc(OCc2ccccc2)cc1 [Monobenzone]
[1]; ASPC1, 72 h, AsPC-1, 10 μM, average of 4 tests, read-out: inhibition effect (survival rate of cells), average
  viability at 10 µM: 95.1%
[1]; ASPC1, AsPC-1, 10 μM, 72 hours, test 1-4-30 min, read-out: inhibition effect (survival rate of cells)
  viability at 10 µM: 93.7%
[1]; ASPC1, AsPC-1, 10 μM, 72 hours, test 1-7-3-30 min, read-out: inhibition effect (survival rate of cells)
  viability at 10 µM: 88.7%
[1]; ASPC1, AsPC-1, 10 μM, 72 hours, test 1-7-4-30 min, read-out: inhibition effect (survival rate of cells)
  viability at 10 µM: 116%
[1]; ASPC1, AsPC-1, 10 μM, 72 hours, test 1-7-7-30 min, read-out: inhibition effect (survival rate of cells)
  viability at 10 µM: 81.7%
[2]; both low dose (100 mg/kg/day) and high dose (200 mg/kg/day), FIG. 2
  inhibition effect on tumor cells (in words): significant inhibition effect on tumor cells
[2]; [8]
  Tumor volume growth, average: 0 mm3
  tumor volume, average: 0 mm3
  Tumor volume growth: 0 mm3
  tumor longest length: 0 mm
  tumor volume: 0 mm3
  tumor width: 0 mm
[2]; [9]
  Tumor volume growth, average: 25.67 mm3
  tumor volume, average: 25.67 mm3
[2]; [10]
  Tumor volume growth: 18 mm3 and 27 mm3 and 32 mm3
  tumor longest length: 4 mm (2×) and 6 mm
  tumor volume: 18 mm3 and 27 mm3 and 32 mm3
  tumor width: 3 mm (2×) and 4 mm
[2]; [11]
  Tumor volume growth, average: −50 mm3
  tumor volume, average: 0 mm3
  tumor longest length: 0 mm
  tumor volume: 0 mm3
  tumor width: 0 mm
[2]; high dose (200 mg/kg/day) i.p. once daily, Fourth measurement, 200 mg/kg/day
  Tumor volume growth: −87.5 mm3 and −62.5 mm3 and 0 mm3
[2]; [12]
  Tumor volume growth, average: 57.67 mm3
  tumor volume, average: 83.33 mm3
  tumor width: 5 mm
[2]; [13]
  Tumor volume growth: 69.5 mm3 and 48 mm3 and 55.5 mm3
  tumor longest length: 7 mm (2×) and 6 mm
  tumor volume: 87.5 mm3 (2×) and 75 mm3
[2]; [14]
  Tumor volume growth, average: −33.3333 mm3
  tumor volume, average: 50 mm3
[2]; [15]
  Tumor volume growth: 0 mm3 and −12.5 mm3 and −87.5 mm3
  tumor longest length: 7 mm and 5 mm and 0 mm
  tumor volume: 87.5 mm3 and 62.5 mm3 and 0 mm3
  tumor width: 5 mm (2×) and 0 mm
[2]; high dose (200 mg/kg/day), FIG. 3
  effect on tumor volume growth (in words): effectively slow down the tumor volume growth, and can also reduce the tumor volume
[2]; [16]
  Tumor volume growth, average: 2.667 mm3
  tumor volume, average: 22 mm3
[2]; [17]
  Tumor volume growth: 0 mm3 (2×) and 8 mm3
  tumor longest length: 4 mm and 6 mm and 0 mm
  tumor volume: 18 mm3 and 48 mm3 and 0 mm3
  tumor width: 3 mm and 4 mm and 0 mm
[2]; [18]
  Tumor volume growth, average: 176.3333 mm3
  tumor volume, average: 176.3333 mm3
[2]; [19]
  Tumor volume growth: 256 mm3 and 147 mm3 and 126 mm3
  tumor longest length: 8 mm and 6 mm and 7 mm
  tumor volume: 256 mm3 and 147 mm3 and 126 mm3
  tumor width: 8 mm and 7 mm and 6 mm
[2]; [20]
  Tumor volume growth, average: −88 mm3
  tumor volume, average: 19.33 mm3
[2]; [21]
  Tumor volume growth: −108 mm3 and −68 mm3 and −88 mm3
  tumor longest length: 4 mm and 5 mm and 0 mm
  tumor volume: 18 mm3 and 40 mm3 and 0 mm3
  tumor width: 3 mm and 4 mm and 0 mm
[2]; [22]
  Tumor volume growth, average: −77.5 mm3
  tumor volume, average: 98.83 mm3
[2]; [23]
  Tumor volume growth: −130 mm3 and −39 mm3 and −63.5 mm3
  tumor longest length: 7 mm and 6 mm and 5 mm
  tumor volume: 126 mm3 and 108 mm3 and 62.5 mm3
  tumor width: 6 mm (2×) and 5 mm
[2]; [24]
  Tumor volume growth, average: 0 mm3
  tumor volume, average: 98.83 mm3
  Tumor volume growth: 0 mm3
[2]; [25]
  tumor longest length: 7 mm and 6 mm and 5 mm
  tumor volume: 126 mm3 and 108 mm3 and 62.5 mm3
  tumor width: 6 mm (2×) and 5 mm
[3]; OVCAR-3, 72 h, NIH-OVCAR-3, 10 μM, average of 4 tests, read-out: inhibition effect (survival rate of cells), average
  viability at 10 µM: 91.5%
[3]; OVCAR-3, NIH-OVCAR-3, 10 μM, 72 hours, test 7-3-30 min, read-out: inhibition effect (survival rate of cells)
  viability at 10 µM: 88.3%
[3]; OVCAR-3, NIH-OVCAR-3, 10 μM, 72 hours, test 7-4-30 min, read-out: inhibition effect (survival rate of cells)
  viability at 10 µM: 96.6%
[3]; OVCAR-3, NIH-OVCAR-3, 10 μM, 72 hours, test 7-7-30 min, read-out: inhibition effect (survival rate of cells)
  viability at 10 µM: 88.3%
[3]; OVCAR-3, NIH-OVCAR-3, 10 μM, 72 hours, test −4-30 min, read-out: inhibition effect (survival rate of cells)
  viability at 10 µM: 92.7%
[4]; MCF7, 72 h, MCF7, 10 μM, average of 4 tests, read-out: inhibition effect (survival rate of cells), average
  viability at 10 µM: 95.7%
[4]; MCF7, MCF7, 10 μM, 72 hours, test 0612-10 min, read-out: inhibition effect (survival rate of cells)
  viability at 10 µM: 107%
[4]; MCF7, MCF7, 10 μM, 72 hours, test 0614-10 min, read-out: inhibition effect (survival rate of cells)
  viability at 10 µM: 88.8%
[4]; MCF7, MCF7, 10 μM, 72 hours, test 0616-10 min, read-out: inhibition effect (survival rate of cells)
  viability at 10 µM: 80.6%
[4]; MCF7, MCF7, 10 μM, 72 hours, test 0619-10 min, read-out: inhibition effect (survival rate of cells)
  viability at 10 µM: 106%
[5]; MDA-MB-231, 72 h, MDA-MB-231, 10 μM, average of 4 tests, read-out: inhibition effect (survival rate of cells), average
  viability at 10 µM: 80.1%
[5]; MDA-MB-231, MDA-MB-231, 10 μM, 72 hours, test 0612-10 min, read-out: inhibition effect (survival rate of cells)
  viability at 10 µM: 91.3%
[5]; MDA-MB-231, MDA-MB-231, 10 μM, 72 hours, test 0614-10 min, read-out: inhibition effect (survival rate of cells)
  viability at 10 µM: 67.6%
[5]; MDA-MB-231, MDA-MB-231, 10 μM, 72 hours, test 0616-10 min, read-out: inhibition effect (survival rate of cells)
  viability at 10 µM: 69.6%
[5]; MDA-MB-231, MDA-MB-231, 10 μM, 72 hours, test 0619-10 min, read-out: inhibition effect (survival rate of cells)
  viability at 10 µM: 92%
Pancreatic cancer cell
  viability at 10 µM: 86.8%
Normal cells
  toxicity to normal cells (in words): no toxicity or had little toxicity to normal cells
[6]; [26]
  viability at 10 µM: 80.1%
[6]; 72 hours, test 0524-10 min, read-out: inhibition effect (survival rate of cells)
  viability at 10 µM: 82.8%
[6]; 72 hours, test 0526-10 min, read-out: inhibition effect (survival rate of cells)
  viability at 10 µM: 72.8%
[6]; 72 hours, test 0529-10 min, read-out: inhibition effect (survival rate of cells)
  viability at 10 µM: 82.7%
[6]; 72 hours, test 0531-10 min, read-out: inhibition effect (survival rate of cells)
  viability at 10 µM: 81.9%
[7]; [26]
  viability at 10 µM: 87%
[7]; 72 hours, test T24-1-30 min, read-out: inhibition effect (survival rate of cells)
  viability at 10 µM: 93.5%
[7]; 72 hours, test T24-2-20 min, read-out: inhibition effect (survival rate of cells)
  viability at 10 µM: 70.4%
[7]; 72 hours, test T24-3-20 min, read-out: inhibition effect (survival rate of cells)
  viability at 10 µM: 89.4%
[7]; 72 hours, test T24-4-20 min, read-out: inhibition effect (survival rate of cells)
  viability at 10 µM: 94.7%
Colorectal cancer cell
  viability at 10 µM: 89%

Source: US10098852B2 (LAUNX BIOMEDICAL CO., LTD., priority 2014, dated 2018)
